# Where two headings read alike, the source gives them in different places.
# How the values were obtained:
# Experiment in all cases: kinase profiling panel
# Type in all cases: biochemical
# Conditions in all cases: read-out: % Activity Remaining
# [1] = target: IGF-1R (Homo sapiens, UniProt P08069)
# From the text: (§1) Protein kinase profiling against a Dundee panel of 140 protein kinases was undertaken at the International Centre for Protein Kinase Profiling. The result for each kinase was presented as a mean kinase activity of the reaction taken in triplicate relative to a control sample treated with DMSO. Assay conditions and abbreviations are available at http://www.kinase-screen.mrc.ac.uk.
# [2] = target: CAMKK beta (Homo sapiens, UniProt Q96RR4)
# From the text: as §1
# [3] = target: PAK2 (Homo sapiens, UniProt Q13177)
# Sequence of PAK2 (Q13177 whole entry): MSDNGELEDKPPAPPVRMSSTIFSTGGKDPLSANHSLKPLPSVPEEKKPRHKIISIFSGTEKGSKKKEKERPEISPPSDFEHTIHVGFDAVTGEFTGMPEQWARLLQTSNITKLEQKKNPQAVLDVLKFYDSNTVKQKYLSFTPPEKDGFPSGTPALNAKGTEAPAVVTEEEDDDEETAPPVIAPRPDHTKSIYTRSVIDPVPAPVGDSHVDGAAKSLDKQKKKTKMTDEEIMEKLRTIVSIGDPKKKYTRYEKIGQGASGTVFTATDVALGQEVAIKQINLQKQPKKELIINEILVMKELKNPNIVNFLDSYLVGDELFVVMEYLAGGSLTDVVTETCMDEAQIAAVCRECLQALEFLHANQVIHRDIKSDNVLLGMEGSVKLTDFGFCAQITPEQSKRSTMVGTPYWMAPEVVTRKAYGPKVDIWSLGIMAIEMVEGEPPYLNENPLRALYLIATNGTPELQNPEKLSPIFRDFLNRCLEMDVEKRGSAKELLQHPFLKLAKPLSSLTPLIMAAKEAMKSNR
# From the text: as §1
# [4] = target: GSK3 beta (Homo sapiens, UniProt P49841)
# Sequence of GSK3 beta (P49841 whole entry): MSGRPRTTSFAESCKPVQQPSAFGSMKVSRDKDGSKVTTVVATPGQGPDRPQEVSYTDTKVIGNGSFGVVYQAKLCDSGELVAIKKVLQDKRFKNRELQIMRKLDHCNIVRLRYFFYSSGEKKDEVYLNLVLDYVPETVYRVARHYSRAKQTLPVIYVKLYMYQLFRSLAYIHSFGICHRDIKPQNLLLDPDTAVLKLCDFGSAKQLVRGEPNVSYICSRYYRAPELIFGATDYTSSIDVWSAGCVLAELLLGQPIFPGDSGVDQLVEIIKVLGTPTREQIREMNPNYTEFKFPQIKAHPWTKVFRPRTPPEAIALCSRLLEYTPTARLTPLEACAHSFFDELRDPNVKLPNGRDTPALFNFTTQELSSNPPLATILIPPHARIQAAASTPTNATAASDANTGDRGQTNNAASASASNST
# From the text: as §1
# [5] = target: T1, DYRK3 (Homo sapiens, UniProt O43781)
# T1 sequence (O43781 1-588): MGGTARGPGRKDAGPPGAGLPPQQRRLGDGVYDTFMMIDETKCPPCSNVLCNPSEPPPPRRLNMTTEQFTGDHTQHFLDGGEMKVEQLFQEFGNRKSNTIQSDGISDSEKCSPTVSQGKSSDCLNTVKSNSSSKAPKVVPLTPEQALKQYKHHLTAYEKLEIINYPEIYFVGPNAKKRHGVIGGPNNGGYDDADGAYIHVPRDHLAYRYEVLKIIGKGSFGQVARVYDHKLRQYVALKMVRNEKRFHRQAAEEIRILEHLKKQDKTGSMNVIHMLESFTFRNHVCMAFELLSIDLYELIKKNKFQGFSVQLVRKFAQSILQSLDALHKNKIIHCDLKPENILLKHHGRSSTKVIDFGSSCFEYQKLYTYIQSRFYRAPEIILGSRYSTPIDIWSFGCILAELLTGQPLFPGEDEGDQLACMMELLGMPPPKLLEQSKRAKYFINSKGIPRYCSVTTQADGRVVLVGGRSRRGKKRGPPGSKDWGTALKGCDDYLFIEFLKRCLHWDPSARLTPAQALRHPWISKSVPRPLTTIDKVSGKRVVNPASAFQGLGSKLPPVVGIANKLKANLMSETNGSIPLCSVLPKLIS
# From the text: as §1
# [6] = target: ERK1 (Homo sapiens, UniProt P27361)
# Sequence of ERK1 (P27361 whole entry): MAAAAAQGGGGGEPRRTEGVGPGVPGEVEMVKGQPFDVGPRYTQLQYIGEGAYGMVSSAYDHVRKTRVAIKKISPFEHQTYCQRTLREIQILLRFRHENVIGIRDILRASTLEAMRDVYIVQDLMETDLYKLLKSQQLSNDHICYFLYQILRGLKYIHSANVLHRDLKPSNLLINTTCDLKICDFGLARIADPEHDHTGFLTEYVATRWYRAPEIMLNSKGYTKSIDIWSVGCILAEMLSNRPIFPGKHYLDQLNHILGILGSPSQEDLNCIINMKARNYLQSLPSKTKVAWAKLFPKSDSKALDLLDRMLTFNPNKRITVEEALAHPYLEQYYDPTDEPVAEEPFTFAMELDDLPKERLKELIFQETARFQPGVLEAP
# From the text: as §1
# [7] = target: T2, ASK1 (Homo sapiens, UniProt Q99683)
# T2 sequence (Q99683 1-1374): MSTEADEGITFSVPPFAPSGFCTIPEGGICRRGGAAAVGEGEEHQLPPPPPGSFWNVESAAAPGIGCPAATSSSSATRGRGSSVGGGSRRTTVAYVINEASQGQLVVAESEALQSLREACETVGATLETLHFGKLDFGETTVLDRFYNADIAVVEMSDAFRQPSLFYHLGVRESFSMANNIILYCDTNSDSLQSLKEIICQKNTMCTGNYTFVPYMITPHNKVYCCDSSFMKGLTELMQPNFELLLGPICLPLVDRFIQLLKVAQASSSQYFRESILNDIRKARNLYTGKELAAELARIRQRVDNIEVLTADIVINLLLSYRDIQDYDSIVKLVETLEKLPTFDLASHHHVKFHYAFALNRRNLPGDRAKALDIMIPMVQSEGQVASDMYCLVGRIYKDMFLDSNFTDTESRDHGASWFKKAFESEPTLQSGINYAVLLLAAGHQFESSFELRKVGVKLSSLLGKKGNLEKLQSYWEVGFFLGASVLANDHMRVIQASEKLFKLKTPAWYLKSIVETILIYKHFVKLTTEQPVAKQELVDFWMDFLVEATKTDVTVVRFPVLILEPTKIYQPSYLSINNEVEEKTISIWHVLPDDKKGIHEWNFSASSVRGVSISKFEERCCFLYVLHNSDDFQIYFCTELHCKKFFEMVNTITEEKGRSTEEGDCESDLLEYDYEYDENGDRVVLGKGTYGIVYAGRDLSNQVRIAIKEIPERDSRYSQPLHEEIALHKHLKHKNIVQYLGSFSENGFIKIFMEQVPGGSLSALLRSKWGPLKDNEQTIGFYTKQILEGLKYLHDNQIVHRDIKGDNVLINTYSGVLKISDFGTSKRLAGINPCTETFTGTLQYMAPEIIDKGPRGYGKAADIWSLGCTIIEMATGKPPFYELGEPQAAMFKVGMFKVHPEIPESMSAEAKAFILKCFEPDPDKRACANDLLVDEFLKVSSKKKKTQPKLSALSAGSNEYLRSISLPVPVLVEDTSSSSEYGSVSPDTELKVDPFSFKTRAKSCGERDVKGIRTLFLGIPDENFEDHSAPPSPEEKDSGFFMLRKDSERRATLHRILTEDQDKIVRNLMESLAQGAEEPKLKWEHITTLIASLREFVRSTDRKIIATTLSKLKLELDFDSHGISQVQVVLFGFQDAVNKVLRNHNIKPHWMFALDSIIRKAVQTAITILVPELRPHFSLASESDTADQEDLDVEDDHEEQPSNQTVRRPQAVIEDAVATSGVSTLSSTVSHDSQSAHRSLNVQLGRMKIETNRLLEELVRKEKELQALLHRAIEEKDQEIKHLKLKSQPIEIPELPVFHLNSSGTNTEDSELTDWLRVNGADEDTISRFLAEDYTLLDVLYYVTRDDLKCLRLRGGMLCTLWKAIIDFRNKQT
# From the text: as §1
# [8] = target: T3, NEK2a (Homo sapiens, UniProt P51955)
# T3 sequence (P51955 1-445): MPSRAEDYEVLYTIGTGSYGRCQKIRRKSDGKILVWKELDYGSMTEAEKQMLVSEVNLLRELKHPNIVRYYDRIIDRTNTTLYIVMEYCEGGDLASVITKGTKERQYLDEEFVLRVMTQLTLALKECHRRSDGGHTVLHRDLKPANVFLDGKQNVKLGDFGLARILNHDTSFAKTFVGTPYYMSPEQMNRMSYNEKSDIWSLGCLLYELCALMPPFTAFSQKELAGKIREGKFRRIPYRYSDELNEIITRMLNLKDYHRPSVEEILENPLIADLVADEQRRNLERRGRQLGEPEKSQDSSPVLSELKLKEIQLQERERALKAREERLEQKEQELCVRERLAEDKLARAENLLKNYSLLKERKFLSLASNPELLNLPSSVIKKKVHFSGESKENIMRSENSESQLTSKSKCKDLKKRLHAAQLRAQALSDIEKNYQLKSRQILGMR
# From the text: as §1
# [9] = target: MLK3 (Homo sapiens, UniProt Q16584)
# Sequence of MLK3 (Q16584 whole entry): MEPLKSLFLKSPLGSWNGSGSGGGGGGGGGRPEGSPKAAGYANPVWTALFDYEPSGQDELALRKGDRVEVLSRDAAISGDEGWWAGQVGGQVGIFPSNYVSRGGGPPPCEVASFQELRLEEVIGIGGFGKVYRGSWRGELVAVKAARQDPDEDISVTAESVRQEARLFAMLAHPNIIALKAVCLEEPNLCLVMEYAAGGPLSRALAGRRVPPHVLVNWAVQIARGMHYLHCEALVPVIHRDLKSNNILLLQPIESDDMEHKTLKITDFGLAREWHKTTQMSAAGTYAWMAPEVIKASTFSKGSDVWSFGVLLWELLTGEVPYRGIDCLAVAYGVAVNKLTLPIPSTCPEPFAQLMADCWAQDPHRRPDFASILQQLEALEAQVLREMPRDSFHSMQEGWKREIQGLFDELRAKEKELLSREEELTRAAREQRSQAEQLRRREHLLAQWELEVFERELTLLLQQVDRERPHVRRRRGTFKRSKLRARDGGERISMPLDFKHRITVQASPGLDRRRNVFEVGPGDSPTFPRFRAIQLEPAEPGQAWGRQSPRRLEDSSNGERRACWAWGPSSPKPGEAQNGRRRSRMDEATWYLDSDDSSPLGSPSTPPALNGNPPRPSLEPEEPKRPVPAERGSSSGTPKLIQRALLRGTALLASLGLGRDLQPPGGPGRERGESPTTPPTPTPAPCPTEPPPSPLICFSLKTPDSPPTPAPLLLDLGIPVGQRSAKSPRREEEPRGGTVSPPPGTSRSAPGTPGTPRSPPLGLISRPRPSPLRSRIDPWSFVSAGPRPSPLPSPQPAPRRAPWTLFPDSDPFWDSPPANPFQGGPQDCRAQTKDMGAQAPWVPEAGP
# From the text: as §1
# [10] = target: CK2 (Homo sapiens, UniProt P68400)
# Sequence of CK2 (P68400 whole entry): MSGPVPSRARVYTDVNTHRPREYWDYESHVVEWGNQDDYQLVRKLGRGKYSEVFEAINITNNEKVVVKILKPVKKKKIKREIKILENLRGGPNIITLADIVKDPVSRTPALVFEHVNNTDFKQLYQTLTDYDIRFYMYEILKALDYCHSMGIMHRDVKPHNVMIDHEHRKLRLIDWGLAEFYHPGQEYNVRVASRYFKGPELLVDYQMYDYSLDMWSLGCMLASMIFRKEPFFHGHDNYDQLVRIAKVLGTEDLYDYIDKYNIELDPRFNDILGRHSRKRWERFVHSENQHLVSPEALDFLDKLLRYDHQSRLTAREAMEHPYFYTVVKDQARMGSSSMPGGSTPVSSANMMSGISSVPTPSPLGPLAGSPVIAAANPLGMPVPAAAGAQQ
# From the text: as §1
# [11] = target: PAK6 (Homo sapiens, UniProt Q9NQU5)
# Sequence of PAK6 (Q9NQU5 whole entry): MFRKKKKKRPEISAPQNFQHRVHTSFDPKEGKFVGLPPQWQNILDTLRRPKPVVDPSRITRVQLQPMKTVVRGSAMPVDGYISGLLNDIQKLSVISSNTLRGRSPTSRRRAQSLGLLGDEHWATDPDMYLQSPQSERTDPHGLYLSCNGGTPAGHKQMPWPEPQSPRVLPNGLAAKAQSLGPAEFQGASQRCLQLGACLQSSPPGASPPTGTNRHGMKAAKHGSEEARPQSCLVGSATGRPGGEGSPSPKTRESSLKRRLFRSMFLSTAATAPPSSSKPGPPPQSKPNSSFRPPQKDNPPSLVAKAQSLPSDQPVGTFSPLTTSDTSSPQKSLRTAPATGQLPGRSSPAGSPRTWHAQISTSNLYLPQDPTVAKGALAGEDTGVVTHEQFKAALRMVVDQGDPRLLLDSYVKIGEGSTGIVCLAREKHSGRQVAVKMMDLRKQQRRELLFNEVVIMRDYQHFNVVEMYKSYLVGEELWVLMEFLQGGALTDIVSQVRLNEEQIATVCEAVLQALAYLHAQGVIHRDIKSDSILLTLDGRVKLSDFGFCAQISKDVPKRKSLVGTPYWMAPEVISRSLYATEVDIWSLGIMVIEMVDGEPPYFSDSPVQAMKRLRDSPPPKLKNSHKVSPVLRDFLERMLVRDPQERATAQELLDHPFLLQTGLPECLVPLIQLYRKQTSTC
# From the text: as §1
# Sequence of IGF-1R (P08069 31-1367): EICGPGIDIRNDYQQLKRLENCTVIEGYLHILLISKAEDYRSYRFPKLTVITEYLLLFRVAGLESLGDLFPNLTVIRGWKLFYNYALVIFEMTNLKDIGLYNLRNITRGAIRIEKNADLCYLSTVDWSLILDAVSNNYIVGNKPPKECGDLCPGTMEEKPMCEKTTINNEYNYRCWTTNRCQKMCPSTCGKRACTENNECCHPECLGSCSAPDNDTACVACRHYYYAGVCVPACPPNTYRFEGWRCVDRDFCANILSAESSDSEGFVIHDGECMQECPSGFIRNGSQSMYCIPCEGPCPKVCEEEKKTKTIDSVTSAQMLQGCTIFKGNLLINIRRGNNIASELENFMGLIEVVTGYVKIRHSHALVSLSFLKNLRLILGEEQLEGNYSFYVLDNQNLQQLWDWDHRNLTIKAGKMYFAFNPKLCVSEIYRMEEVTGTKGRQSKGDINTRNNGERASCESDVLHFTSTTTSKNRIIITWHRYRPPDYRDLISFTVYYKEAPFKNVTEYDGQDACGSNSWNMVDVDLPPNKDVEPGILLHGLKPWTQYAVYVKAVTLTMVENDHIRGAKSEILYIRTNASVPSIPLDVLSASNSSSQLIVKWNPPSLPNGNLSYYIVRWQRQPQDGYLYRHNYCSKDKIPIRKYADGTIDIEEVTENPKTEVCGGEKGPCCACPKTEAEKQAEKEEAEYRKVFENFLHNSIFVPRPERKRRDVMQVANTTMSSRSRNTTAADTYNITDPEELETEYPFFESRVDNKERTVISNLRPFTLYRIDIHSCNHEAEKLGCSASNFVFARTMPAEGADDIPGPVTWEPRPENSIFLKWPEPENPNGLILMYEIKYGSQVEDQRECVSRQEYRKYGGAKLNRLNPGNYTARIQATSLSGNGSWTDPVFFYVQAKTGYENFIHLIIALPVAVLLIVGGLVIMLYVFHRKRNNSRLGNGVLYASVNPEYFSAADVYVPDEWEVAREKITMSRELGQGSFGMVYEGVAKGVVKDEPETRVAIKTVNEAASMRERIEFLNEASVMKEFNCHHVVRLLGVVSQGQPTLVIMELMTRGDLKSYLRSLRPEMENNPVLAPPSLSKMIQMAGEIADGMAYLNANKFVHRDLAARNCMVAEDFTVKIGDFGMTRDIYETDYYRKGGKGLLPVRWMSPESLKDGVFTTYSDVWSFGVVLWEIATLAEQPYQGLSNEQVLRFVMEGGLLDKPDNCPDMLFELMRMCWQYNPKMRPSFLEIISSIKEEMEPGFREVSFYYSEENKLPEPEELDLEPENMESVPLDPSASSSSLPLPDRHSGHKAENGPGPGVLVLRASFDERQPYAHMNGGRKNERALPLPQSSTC
Structure (SMILES),remaining activity at 1 µM ([1]; 1 µM) [%],remaining activity at 1 µM ([2]; 1 µM) [%],remaining activity at 1 µM ([3]; 1 µM) [%],remaining activity at 1 µM ([4]; 1 µM) [%],remaining activity at 1 µM ([5]; 1 µM) [%],remaining activity at 1 µM ([6]; 1 µM) [%],remaining activity at 1 µM ([7]; 1 µM) [%],remaining activity at 1 µM ([8]; 1 µM) [%],remaining activity at 1 µM ([9]; 1 µM) [%],remaining activity at 1 µM ([10]; 1 µM) [%],remaining activity at 1 µM ([11]; 1 µM) [%],remaining activity at 1 µM [1] [%],remaining activity at 1 µM [2] [%],remaining activity at 1 µM [3] [%],remaining activity at 1 µM [4] [%],remaining activity at 1 µM [5] [%],remaining activity at 1 µM [6] [%],remaining activity at 1 µM [7] [%],remaining activity at 1 µM [8] [%],remaining activity at 1 µM [9] [%],other results
Cc1ccc(F)c(S(=O)(=O)Nc2ccc(-c3nc(OC[C@H]4CN(CCCCCCOCCOCCOCC(=O)N[C@H](C(=O)N5C[C@H](O)C[C@H]5C(=O)NCc5ccc(-c6scnc6C)cc5)C(C)(C)C)CCO4)c4cn[nH]c4n3)cc2)c1 [SGK3-PROTAC1],82,99,116,108,102,103,113,162,71,90,98,,,,,,,,,,
"Cc1ccc(F)c(S(=O)(=O)Nc2ccc(-c3nc(OC[C@H]4CNCCO4)c4cn[nH]c4n3)cc2)c1 [308-R, reference compound]",,,,,,,,,,,,95,106,53,92,99,106,87,67,24,remaining activity at 1 µM [10]: 103%; remaining activity at 1 µM [11]: 80%
"COc1ccc(Cl)c(S(=O)(=O)Nc2ccc(-c3nc(OC[C@H]4CNCCO4)c4c(C)n[nH]c4n3)cc2)c1 [290-R, reference compound]",,,,,,,,,,100,,88,77,90,90,89,115,104,74,10,remaining activity at 1 µM [11]: 94%
Cc1ccc(F)c(S(=O)(=O)Nc2ccc(-c3nc(OC[C@H]4CN(CCCCCCOCCOCCOCC(=O)N[C@H](C(=O)N5C[C@@H](O)C[C@H]5C(=O)NCc5ccc(-c6scnc6C)cc5)C(C)(C)C)CCO4)c4cn[nH]c4n3)cc2)c1 [cisSGK3-PROTAC1],93,108,99,106,104,101,102,139,76,96,99,,,,,,,,,,
